Data on twelve compounds can be found in US8450243B2, “Herbicidal quinoline and 1,8-naphthyridine compounds” (Syngenta Limited, priority 2009, dated 2013).

Holding throughout (type): in vivo
For experiment [1], the system named is Amaranthus retoflexus (AMARE). Briefly: Herbicidal glasshouse test, post-emergence. Particulars: POST Application, evaluated after 13 days; for pest or weed control at 250 g/ha: Amaranthus retroflexus, post-emergence, 312 h, read-out: damage to plant (100=total damage to plant; 0=no damage to plant); for damage to plant (100=total damage to plant; 0=no damage to plant): 250 g/ha. On the procedure: (§1) Seeds of a variety of test species were sown in standard soil in pots (Alopecurus myosuroides (ALOMY), Setaria faberi (SETFA), Echinochloa crus-galli (ECHCG), Abuthilon theophrasti (ABUTH) and Amaranthus retoflexus (AMARE)). After cultivation for one day (pre-emergence) or after 8 days cultivation (post-emergence) under controlled conditions in a glasshouse (at 24/16° C., day/night; 14 hours light; 65% humidity), the plants were sprayed with an aqueous spray solution derived from the formulation of the technical active ingredient in acetone/water (50:50) solution containing 0.5% Tween 20 (polyoxyethelyene sorbitan monolaurate, CAS RN 9005-64-5). Compounds were applied at 250 g/ha. The test plants were then grown in a glasshouse under controlled conditions in a glasshouse (at 24/16° C., day/night; 14 hours light; 65% humidity) and watered twice daily. After 13 days for pre and post-emergence, the test was evaluated (100=total damage to plant; 0=no damage to plant).

Experiment [2] relates to Setaria faberi (SETFA). Briefly: Herbicidal glasshouse test, post-emergence. Particulars: POST Application, evaluated after 13 days; for pest or weed control at 250 g/ha: Setaria faberi, post-emergence, 312 h, read-out: damage to plant (100=total damage to plant; 0=no damage to plant); for damage to plant (100=total damage to plant; 0=no damage to plant): 250 g/ha. The procedure: as §1

Experiment [3] relates to Abuthilon theophrasti (ABUTH). Briefly: Herbicidal glasshouse test, post-emergence. Particulars: POST Application, evaluated after 13 days; for pest or weed control at 250 g/ha: Abutilon theophrasti, post-emergence, 312 h, read-out: damage to plant (100=total damage to plant; 0=no damage to plant); for damage to plant (100=total damage to plant; 0=no damage to plant): 250 g/ha. On the procedure:
as §1

For experiment [4], the system named is Alopecurus myosuroides (ALOMY). Briefly: Herbicidal glasshouse test, post-emergence. Particulars: POST Application, evaluated after 13 days; for pest or weed control at 250 g/ha: Alopecurus myosuroides, post-emergence, 312 h, read-out: damage to plant (100=total damage to plant; 0=no damage to plant); for damage to plant (100=total damage to plant; 0=no damage to plant): 250 g/ha. On the procedure:
as §1

For experiment [5], the system named is Echinochloa crus-galli (ECHCG). Briefly: Herbicidal glasshouse test, post-emergence. Particulars: POST Application, evaluated after 13 days; for pest or weed control at 250 g/ha: Echinochloa crus-galli, post-emergence, 312 h, read-out: damage to plant (100=total damage to plant; 0=no damage to plant); for damage to plant (100=total damage to plant; 0=no damage to plant): 250 g/ha. On the procedure: as §1

Experiment [6] concerns Amaranthus retoflexus (AMARE). Briefly: Herbicidal glasshouse test, pre-emergence. Conditions: PRE Application, evaluated after 13 days; for pest or weed control at 250 g/ha: Amaranthus retroflexus, pre-emergence, 312 h, read-out: damage to plant (100=total damage to plant; 0=no damage to plant); for damage to plant (100=total damage to plant; 0=no damage to plant): 250 g/ha. The procedure: as §1

Experiment [7] has as its system Setaria faberi (SETFA). Briefly: Herbicidal glasshouse test, pre-emergence. Conditions: PRE Application, evaluated after 13 days; for pest or weed control at 250 g/ha: Setaria faberi, pre-emergence, 312 h, read-out: damage to plant (100=total damage to plant; 0=no damage to plant); for damage to plant (100=total damage to plant; 0=no damage to plant): 250 g/ha. On the procedure:
as §1

The test system of experiment [8] is Abuthilon theophrasti (ABUTH). Briefly: Herbicidal glasshouse test, pre-emergence. Conditions: PRE Application, evaluated after 13 days; for pest or weed control at 250 g/ha: Abutilon theophrasti, pre-emergence, 312 h, read-out: damage to plant (100=total damage to plant; 0=no damage to plant); for damage to plant (100=total damage to plant; 0=no damage to plant): 250 g/ha. On the procedure:
as §1

Experiment [9] deals with Alopecurus myosuroides (ALOMY). Briefly: Herbicidal glasshouse test, pre-emergence. Conditions: PRE Application, evaluated after 13 days; for pest or weed control at 250 g/ha: Alopecurus myosuroides, pre-emergence, 312 h, read-out: damage to plant (100=total damage to plant; 0=no damage to plant); for damage to plant (100=total damage to plant; 0=no damage to plant): 250 g/ha. On the procedure: as §1

In experiment [10] the test system is Echinochloa crus-galli (ECHCG). Briefly: Herbicidal glasshouse test, pre-emergence. Particulars: PRE Application, evaluated after 13 days; for pest or weed control at 250 g/ha: Echinochloa crus-galli, pre-emergence, 312 h, read-out: damage to plant (100=total damage to plant; 0=no damage to plant); for damage to plant (100=total damage to plant; 0=no damage to plant): 250 g/ha. The procedure: as §1

Turning to `Cc1ccc2cc(C(=O)C3C(=O)CCCC3=O)c(=O)n(C)c2n1` [Compound 1.2, 2-(1,7-Dimethyl-2-oxo-1,2-dihydro[1,8]-naphthyridine-3-carbonyl)-cyclohexane-1,3-dione], the pest or weed control at 250 g/ha in experiment [1] is 80%; in the experiment on Setaria faberi (SETFA) [2], 80%; in [3], 80%; in [4] it was 40%; in [5], 80%; in experiment [6], 40%. Besides, the pest or weed control at 250 g/ha is 70% with Setaria faberi (SETFA) [7], 70% in experiment [8], 20% in [9] and 90% in [10].

As for `Cn1c(=O)c(C(=O)C2C(=O)CCCC2=O)cc2cccnc21` [Compound 1.29], the pest or weed control at 250 g/ha is 90% in experiment [1]; 90% in the experiment on Setaria faberi (SETFA) [2]; 90% in [3]; 30% in experiment [4]; 80% in [5]; 100% in experiment [6]. In addition, the pest or weed control at 250 g/ha was 10% in the experiment on Setaria faberi (SETFA) [7], 90% in [8], 30% in experiment [9] and 100% in [10].

Turning to `Cc1cc(C)c2cc(C(=O)C3C(=O)CCCC3=O)c(=O)n(C)c2n1` [Compound 1.42], the pest or weed control at 250 g/ha amounted to 70% in experiment [1]; 60% in the experiment with Setaria faberi (SETFA) [2]; 50% in experiment [3]; 0% in experiment [4]; 70% in experiment [5]; 0% in [6]. Also, the pest or weed control at 250 g/ha (in the experiment on Setaria faberi (SETFA) [7]; in experiment [8]; in [9]; in experiment [10]) was 0% throughout.

Take `COCn1c(=O)c(C(=O)C2C(=O)CCCC2=O)cc2cc(F)cnc21` [Compound 1.43]: the pest or weed control at 250 g/ha worked out at 80% in experiment [1]; 80% with Setaria faberi (SETFA) [2]; 80% in experiment [3]; 60% in experiment [4]; 80% in [5]; 100% in [6]. The pest or weed control at 250 g/ha was determined as 100% with Setaria faberi (SETFA) [7], 100% in experiment [8], 40% in experiment [9] and 100% in experiment [10].

`COCCn1c(=O)c(C(=O)C2C(=O)CCCC2=O)cc2cc(F)cnc21` [Compound 1.44]: the pest or weed control at 250 g/ha in experiment [1] was determined as 80%; in the experiment on Setaria faberi (SETFA) [2], 80%; in experiment [3] it was 90%; in experiment [4] it was 80%; in experiment [5] it was 80%; in experiment [6], 100%. The pest or weed control at 250 g/ha in the experiment on Setaria faberi (SETFA) [7] was 100%; in [8], 90%; in experiment [9], 90%; in experiment [10] it was 100%.

Take `O=C1CCCC(=O)C1C(=O)c1cc2cc(F)cnc2n(CC(F)F)c1=O` [Compound 1.45]: the “damage to plant (100=total damage to plant; 0=no damage to plant)” value stood at 80 in experiment [1]; 80 with Setaria faberi (SETFA) [2]; 80 in [3]; 60 in experiment [4]; 80 in experiment [5]; 100 in experiment [6]. Further, the “damage to plant (100=total damage to plant; 0=no damage to plant)” value amounted to 80 with Setaria faberi (SETFA) [7], 100 in experiment [8], 70 in [9] and 100 in experiment [10].

`COCn1c(=O)c(C(=O)C2C(=O)CCCC2=O)cc2cc(F)c(C)nc21` [Compound 1.46]: the pest or weed control at 250 g/ha in experiment [1] was found to be 70%; in the experiment with Setaria faberi (SETFA) [2], 70%; in experiment [3] it was 100%; in experiment [4], 70%; in [5], 80%; in experiment [6] it was 100%. Besides, the pest or weed control at 250 g/ha in the experiment with Setaria faberi (SETFA) [7] was 80%; in experiment [8], 80%; in [9] it was 60%; in experiment [10], 100%.

For `COCCn1c(=O)c(C(=O)C2C(=O)CCCC2=O)cc2cc(F)c(C)nc21` [Compound 1.47], the pest or weed control at 250 g/ha worked out at 70% in experiment [1]; 80% in the experiment on Setaria faberi (SETFA) [2]; 70% in [3]; 80% in experiment [4]; 90% in experiment [5]; 100% in experiment [6]. For the same compound, the pest or weed control at 250 g/ha in the experiment on Setaria faberi (SETFA) [7] came out at 90%; in [8], 90%; in experiment [9], 50%; in experiment [10] it was 90%.

On to `O=C1CCCC(=O)C1C(=O)c1cc2cc(F)cnc2n(CCC=C(F)F)c1=O` [Compound 1.48], for which the “damage to plant (100=total damage to plant; 0=no damage to plant)” value worked out at 40 in experiment [1]; 80 in the experiment with Setaria faberi (SETFA) [2]; 80 in [3]; 70 in experiment [4]; 80 in experiment [5]; 100 in experiment [6]. The “damage to plant (100=total damage to plant; 0=no damage to plant)” value in the experiment on Setaria faberi (SETFA) [7] was determined as 90; in experiment [8], 90; in experiment [9], 80; in experiment [10], 100.

Turning to `CCn1c(=O)c(C(=O)C2C(=O)CCCC2=O)cc2cc(F)cnc21` [Compound 1.49], the pest or weed control at 250 g/ha in experiment [1] turned out to be 70%; with Setaria faberi (SETFA) [2] it was 70%; in experiment [3], 80%; in experiment [4], 70%; in experiment [5] it was 80%; in [6], 100%. The pest or weed control at 250 g/ha in the experiment with Setaria faberi (SETFA) [7] is 90%; in [8], 90%; in [9] it was 60%; in [10], 100%.

As to `CCCn1c(=O)c(C(=O)C2C(=O)CCCC2=O)cc2cc(F)cnc21` [Compound 1.50], the pest or weed control at 250 g/ha in experiment [1] came out at 70%; with Setaria faberi (SETFA) [2], 80%; in experiment [3], 80%; in [4], 70%; in [5], 80%; in experiment [6] it was 90%. Besides, the pest or weed control at 250 g/ha in the experiment with Setaria faberi (SETFA) [7] turned out to be 100%; in [8] it was 90%; in experiment [9] it was 80%; in experiment [10], 100%.

Take `Cn1c(=O)c(C(=O)C2C(=O)CCCC2=O)cc2ccc(Br)cc21` [Compound 3.42]: the pest or weed control at 250 g/ha in experiment [1] amounted to 80%; in the experiment with Setaria faberi (SETFA) [2], 70%; in [3] it was 90%; in experiment [4], 20%; in experiment [5] it was 80%; in [6], 80%. For the same compound, the pest or weed control at 250 g/ha in the experiment with Setaria faberi (SETFA) [7] came to 0%; in experiment [8], 50%; in [9] it was 10%; in experiment [10] it was 70%.
